These results are taken from patent US12433901B2, “Compounds and methods for prevention and treatment of coronavirus infections” (ARJIL BIOTECH HOLDING COMPANY LIMITED, priority 2020, dated 2025).

In the experiment the target is SARS-CoV-2 3CLpro (Severe acute respiratory syndrome coronavirus 2, UniProt P0DTD1). Put plainly: ED-FRET protease assay with SARS-CoV-2 3CLpro (DABCYL-[…]-EDANS IQF peptide substrate). Type of experiment: biochemical. The settings on record: for IC50: IC50, relative 3CLpro activity; for inhibitory effect on peptide-cleaving activity of SARS-CoV-2 3CLpro (in words): compound 20 μM, FIG. 1.

Where [1] appears, read: 0.125 μM SARS-CoV-2 3CLpro and 1.25 μM IQF peptide substrate (0.125p/1.25FP).

The term IC50 denotes the concentration that gives 50% inhibition. As usually defined, the inhibition is the percentage by which the read-out fell short of the control.

Where “and” joins values, the source holds several entries; their conditions need not be identical. Equal entries are not always repeated.

With `C=C1C(=O)O[C@H]2/C=C(\C)CC3C=C(CC/C=C(\C)CC[C@H]12)C(=O)O3` (stereo partly drawn) [AR100 DS1], the “inhibitory effect on peptide-cleaving activity of SARS-CoV-2 3CLpro (in words)” value (shortened to “inhibitory effect … (in words)”) is “inhibitory effect”. Inhibition under setting [1] was half-maximal at 21.3 µM (IC50).

In the case of `C=C(CC[C@@H](C(=O)O)[C@H]1C[C@H](OC(C)=O)[C@@]2(C)C3=C(CC[C@]12C)[C@@]1(C)CC[C@H](O)C(C)(C)[C@@H]1CC3)C(C)C` [AR101 DS3], the “inhibitory effect … (in words)” value was “utmost inhibitory effect”. This molecule also registered a half-maximal inhibitory concentration (IC50) under setting [1] of 11.7 µM. This molecule came in with an IC50 (0.25 μM SARS-CoV-2 3CLpro and 2.5 μM IQF peptide substrate) of 11.1 µM. Also, where the note is “0.5 μM SARS-CoV-2 3CLpro and 5 μM IQF peptide substrate (0.5p/5FP)”, the IC50 was 14.6 µM and 11.1 µM. Moreover, the inhibition at 20 µM (read-out: SARS-CoV-2 3CLpro inhibition) is approximately 50%.

Take `C=C(CC[C@@H](C)[C@H]1CC[C@H]2C3=C(C(=O)C[C@]12C)[C@@]1(C)CC[C@@H](O)[C@](C)(O)[C@@H]1C[C@@H]3O)[C@@H](C)C(=O)O` (stereo in doubt) [AR101 DS1]: the “inhibitory effect … (in words)” value is on record as “inhibitory effect”.

For the molecule `C=C(CC[C@@H](C(=O)O)[C@H]1CC[C@@]2(C)C3=CC[C@H]4C(C)(C)[C@@H](O)CC[C@]4(C)C3=CC[C@]12C)C(C)C` [AR101 DS4], the “inhibitory effect … (in words)” value is on record as “inhibitory effect”.
